The record followed here is patent US11339161B2, “Triazolo pyridines as modulators of gamma-secretase” (Boehringer Ingelheim International GmbH, priority 2017, dated 2022).

One assay deals with KDR (VEGFR2) (Homo sapiens, UniProt P35968). Description: Z'-LYTE SelectScreen biochemical kinase assay KDR (VEGFR2). The text has this:
(§1) Thermo Fisher Scientific SelectScreen™ Biochemical Kinase Profiling Service Z′-LYTE™ Screening Protocol and Assay Conditions Assay Theory
(§2) The […] biochemical assay employs a fluorescence-based, coupled-enzyme format and is based on the differential sensitivity of phosphorylated and non-phosphorylated peptides to proteolytic cleavage. The peptide substrate is labeled with two fluorophores—one at each end—that make up a FRET pair. In the primary reaction, the kinase transfers the gamma-phosphate of ATP to a single tyrosine, serine or threonine residue in a synthetic FRET-peptide. In the secondary reaction, a site-specific protease recognizes and cleaves non-phosphorylated FRET-peptides. Phosphorylation of FRET-peptides suppresses cleavage by the Development Reagent. Cleavage disrupts FRET between the donor (i.e., coumarin) and acceptor (i.e., fluorescein) fluorophores on the FRET-peptide, whereas uncleaved, phosphorylated FRET-peptides maintain FRET. A ratiometric method, which calculates the ratio (Emission Ratio=Coumarin emission (445 nm)/Fluorescein emission (520 nm)) of donor emission to acceptor emission after excitation of the donor fluorophore at 400 nm, is used to quantitate reaction progress, as shown in the equation below. A significant benefit of this ratiometric method for quantitating reaction progress is the elimination of well-to-well variations in FRET-peptide concentration and signal intensities. As a result, the assay yields very high Z′-factor values (>0.7) at a low percent phosphorylation. Both cleaved and uncleaved FRET-peptides contribute to the fluorescence signals and therefore to the Emission Ratio. The extent of phosphorylation of the FRET-peptide can be calculated from the Emission Ratio. The Emission Ratio will remain low if the FRET-peptide is phosphorylated (i.e., no kinase inhibition) and will be high if the FRET-peptide is non-phosphorylated (i.e., kinase inhibition).
(§3) The Test Compounds are screened in 1% DMSO (final) in the well. For 10 point titrations, 3-fold serial dilutions are conducted from the starting concentration of the customer's choosing.
(§4) All Peptide/Kinase Mixtures are diluted to a 2× working concentration in the appropriate Kinase Buffer (see section Kinase Specific Assay Conditions for a complete description).
(§5) All ATP Solutions are diluted to a 4× working concentration in Kinase Buffer (50 mM HEPES pH 7.5, 0.01% BRIJ-35, 10 mM MgCl2, 1 mM EGTA). ATP Km apparent is previously determined using a Z″-LYTE assay.
(§6) The Development Reagent is diluted in Development Buffer (see section Kinase-Specific Assay Conditions—Direct and Cascade for a complete description).
(§7) Bar-coded Corning, low volume NBS, black 384-well plate (Corning Cat. #4514) • 1. 100 nL—100× Test Compound in 100% DMSO • 2. 2.4 μL—Kinase buffer • 3. 5 μL—2× Peptide/Kinase Mixture • 4. 2.5 μL—4×ATP Solution • 5. 30—second plate shake • 6. 60—minute Kinase Reaction incubation at room temperature • 7. 5 μL—Development Reagent Solution • 8. 30—second plate shake • 9. 60—minute Development Reaction incubation at room temperature • 10. Read on fluorescence plate reader and analyze the data Z′-LYTE Assay Controls
(§8) SelectScreen Kinase Profiling Service uses XLfit from IDBS. The dose response curve is curve fit to model number 205 (sigmoidal dose-response model).
The 2×KDR (VEGFR2)/Tyr 01 mixture is prepared in 50 mM HEPES pH 7.5, 0.01% BRIJ-35, 10 mM MgCl2, 1 mM EGTA. The final 10 μL Kinase Reaction consists of 1-30 ng KDR (VEGFR2) and 2 μM Tyr 01 in 50 mM HEPES pH 7.5, 0.01% BRIJ-35, 10 mM MgCl2, 1 mM EGTA. After the 1 hour Kinase Reaction incubation, 5 μL of a 1:256 dilution of Development Reagent B is added.

A further assay addresses LYN B (Homo sapiens, UniProt P07948). Description: Z'-LYTE SelectScreen biochemical kinase assay LYN B.
Text: as §1, §2, §3, §4, §5, §6, §7, §8
The 2×LYN B/Tyr 02 mixture is prepared in 50 mM HEPES pH 7.5, 0.01% BRIJ-35, 10 mM MgCl2, 1 mM EGTA. The final 10 μL Kinase Reaction consists of 0.85-14.8 ng LYN B and 2 μM Tyr 02 in 50 mM HEPES pH 7.5, 0.01% BRIJ-35, 10 mM MgCl2, 1 mM EGTA. After the 1 hour Kinase Reaction incubation, 5 μL of a 1:128 dilution of Development Reagent A is added.

The next assay has as its system kinases. The assay is described as follows: Z'-LYTE SelectScreen kinase panel: number of kinases with <40% inhibition out of 15 tested. The class given is biochemical. To be noted: 10 μmolar (10000 nM) compound; [ATP] Km app; 15 kinases tested.
The target in a further assay is FGFR2 (Homo sapiens, UniProt P21802). The assay is described as follows: Z'-LYTE SelectScreen biochemical kinase assay FGFR2.
Sequence of FGFR2 (P21802 22-821): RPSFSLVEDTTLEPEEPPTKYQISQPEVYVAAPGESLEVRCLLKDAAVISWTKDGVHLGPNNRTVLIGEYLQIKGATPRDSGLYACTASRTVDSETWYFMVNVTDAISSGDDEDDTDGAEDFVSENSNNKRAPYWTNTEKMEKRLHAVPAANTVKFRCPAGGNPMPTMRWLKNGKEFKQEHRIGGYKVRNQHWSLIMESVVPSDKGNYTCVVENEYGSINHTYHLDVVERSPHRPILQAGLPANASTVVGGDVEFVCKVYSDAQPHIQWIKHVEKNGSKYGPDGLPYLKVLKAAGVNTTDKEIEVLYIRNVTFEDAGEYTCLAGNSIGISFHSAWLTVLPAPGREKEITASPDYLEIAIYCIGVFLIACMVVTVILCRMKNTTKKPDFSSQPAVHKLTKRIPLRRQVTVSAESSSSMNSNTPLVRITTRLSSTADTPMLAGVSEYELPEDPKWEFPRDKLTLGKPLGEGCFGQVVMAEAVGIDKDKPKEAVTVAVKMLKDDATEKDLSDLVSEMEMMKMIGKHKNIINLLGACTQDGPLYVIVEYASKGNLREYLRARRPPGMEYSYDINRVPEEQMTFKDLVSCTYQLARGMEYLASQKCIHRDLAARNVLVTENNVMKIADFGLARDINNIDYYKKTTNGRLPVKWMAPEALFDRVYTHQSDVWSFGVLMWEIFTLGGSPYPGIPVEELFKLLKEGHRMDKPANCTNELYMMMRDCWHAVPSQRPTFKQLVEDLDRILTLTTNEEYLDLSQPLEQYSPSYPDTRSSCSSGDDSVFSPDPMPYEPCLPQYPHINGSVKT
Text: as §1, §2, §3, §4, §5, §6, §7, §8
The 2×FGFR2/Tyr 04 mixture is prepared in 50 mM HEPES pH 7.5, 0.01% BRIJ-35, 10 mM MgCl2, 4 mM MnCl2, 1 mM EGTA, 2 mM DTT. The final 10 μL Kinase Reaction consists of 0.19-1.99 ng FGFR2 and 2 μM Tyr 04 in 50 mM HEPES pH 7.5, 0.01% BRIJ-35, 10 mM MgCl2, 2 mM MnCl2, 1 mM EGTA, 1 mM DTT. After the 1 hour Kinase Reaction incubation, 5 μL of a 1:64 dilution of Development Reagent B is added.

For a further assay, the target named is FLT4 (VEGFR3) (Homo sapiens, UniProt P35916). The assay is described as follows: Z'-LYTE SelectScreen biochemical kinase assay FLT4 (VEGFR3).
Sequence of FLT4 (VEGFR3) (P35916 25-1363): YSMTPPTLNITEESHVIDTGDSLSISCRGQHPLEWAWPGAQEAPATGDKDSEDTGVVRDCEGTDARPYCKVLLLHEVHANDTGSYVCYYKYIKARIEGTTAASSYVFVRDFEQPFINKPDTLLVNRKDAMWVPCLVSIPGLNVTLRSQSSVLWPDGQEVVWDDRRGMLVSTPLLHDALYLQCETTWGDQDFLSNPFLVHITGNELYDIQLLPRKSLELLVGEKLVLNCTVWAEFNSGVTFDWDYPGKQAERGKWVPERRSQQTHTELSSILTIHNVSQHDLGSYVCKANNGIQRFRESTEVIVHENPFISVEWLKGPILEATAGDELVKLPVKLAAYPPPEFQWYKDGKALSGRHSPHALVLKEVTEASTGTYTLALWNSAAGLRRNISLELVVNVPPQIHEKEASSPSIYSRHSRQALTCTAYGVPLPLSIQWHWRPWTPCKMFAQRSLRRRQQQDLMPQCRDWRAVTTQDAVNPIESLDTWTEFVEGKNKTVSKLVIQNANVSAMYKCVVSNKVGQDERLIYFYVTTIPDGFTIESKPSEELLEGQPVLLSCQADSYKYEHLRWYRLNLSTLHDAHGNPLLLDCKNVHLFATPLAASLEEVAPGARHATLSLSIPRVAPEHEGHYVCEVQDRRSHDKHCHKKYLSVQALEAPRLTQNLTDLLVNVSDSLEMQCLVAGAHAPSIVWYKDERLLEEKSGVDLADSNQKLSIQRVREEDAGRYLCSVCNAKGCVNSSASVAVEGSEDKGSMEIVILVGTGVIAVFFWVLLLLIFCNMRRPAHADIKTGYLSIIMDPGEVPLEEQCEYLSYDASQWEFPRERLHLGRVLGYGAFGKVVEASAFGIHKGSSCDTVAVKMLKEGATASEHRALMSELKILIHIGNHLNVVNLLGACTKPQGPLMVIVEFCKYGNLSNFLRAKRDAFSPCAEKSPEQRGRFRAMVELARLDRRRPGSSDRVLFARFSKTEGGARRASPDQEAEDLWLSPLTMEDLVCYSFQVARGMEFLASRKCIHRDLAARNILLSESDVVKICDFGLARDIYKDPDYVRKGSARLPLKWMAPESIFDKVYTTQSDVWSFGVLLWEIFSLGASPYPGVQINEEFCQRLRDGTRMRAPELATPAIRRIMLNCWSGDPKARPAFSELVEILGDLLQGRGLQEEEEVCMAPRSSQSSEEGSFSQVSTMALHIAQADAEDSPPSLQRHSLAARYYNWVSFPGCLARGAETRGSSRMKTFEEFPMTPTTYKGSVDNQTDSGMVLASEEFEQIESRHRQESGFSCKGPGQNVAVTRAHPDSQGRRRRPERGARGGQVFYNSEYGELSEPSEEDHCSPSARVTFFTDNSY
Text: as §1, §2, §3, §4, §5, §6, §7, §8
The 2×FLT4 (VEGFR3)/Tyr 04 mixture is prepared in 50 mM HEPES pH 7.5, 0.01% BRIJ-35, 10 mM MgCl2, 4 mM MnCl2, 1 mM EGTA, 2 mM DTT. The final 10 μL Kinase Reaction consists of 2-10.5 ng FLT4 (VEGFR3) and 2 μM Tyr 04 in 50 mM HEPES pH 7.5, 0.01% BRIJ-35, 10 mM MgCl2, 2 mM MnCl2, 1 mM EGTA, 1 mM DTT. After the 1 hour Kinase Reaction incubation, 5 μL of a 1:64 dilution of Development Reagent B is added.

[1] abbreviates: 10 μmolar compound concentration, ATP at Km app, read-out: KDR (VEGFR2) inhibition.
Where [2] appears, read: read-out: % Inhibition mean KDR (VEGFR2).
[3] abbreviates: 10 μmolar compound concentration, ATP at Km app, read-out: LYN B inhibition.
Where [4] appears, read: read-out: % Inhibition mean LYN B.
Where [5] appears, read: 10 μmolar compound concentration, ATP at Km app, read-out: FGFR2 inhibition.
[6] abbreviates: read-out: % Inhibition mean FGFR2.
Where [7] appears, read: 10 μmolar compound concentration, ATP at Km app, read-out: FLT4 (VEGFR3) inhibition.
Where [8] appears, read: read-out: % Inhibition mean FLT4 (VEGFR3).

As a reminder, the inhibition is the change of the read-out against control, counted positive when it falls.

Like-named read-outs stand apart in the source and are kept apart here.

Sequence of LYN B (P07948 1-491 isoform P07948-2): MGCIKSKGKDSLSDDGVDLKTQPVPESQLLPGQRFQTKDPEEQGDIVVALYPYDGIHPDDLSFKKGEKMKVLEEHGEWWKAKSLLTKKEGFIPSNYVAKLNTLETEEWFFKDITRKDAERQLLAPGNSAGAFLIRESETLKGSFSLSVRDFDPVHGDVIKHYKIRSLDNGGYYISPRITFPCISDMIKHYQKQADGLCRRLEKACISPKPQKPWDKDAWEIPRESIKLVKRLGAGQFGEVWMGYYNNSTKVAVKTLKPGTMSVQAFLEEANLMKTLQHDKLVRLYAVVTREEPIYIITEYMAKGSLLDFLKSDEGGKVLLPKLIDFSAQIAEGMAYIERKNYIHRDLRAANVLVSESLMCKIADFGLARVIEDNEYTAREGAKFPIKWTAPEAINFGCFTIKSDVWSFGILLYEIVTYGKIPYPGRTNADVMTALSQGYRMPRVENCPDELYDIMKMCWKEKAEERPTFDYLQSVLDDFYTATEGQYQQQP
Sequence of KDR (VEGFR2) (P35968 20-1356): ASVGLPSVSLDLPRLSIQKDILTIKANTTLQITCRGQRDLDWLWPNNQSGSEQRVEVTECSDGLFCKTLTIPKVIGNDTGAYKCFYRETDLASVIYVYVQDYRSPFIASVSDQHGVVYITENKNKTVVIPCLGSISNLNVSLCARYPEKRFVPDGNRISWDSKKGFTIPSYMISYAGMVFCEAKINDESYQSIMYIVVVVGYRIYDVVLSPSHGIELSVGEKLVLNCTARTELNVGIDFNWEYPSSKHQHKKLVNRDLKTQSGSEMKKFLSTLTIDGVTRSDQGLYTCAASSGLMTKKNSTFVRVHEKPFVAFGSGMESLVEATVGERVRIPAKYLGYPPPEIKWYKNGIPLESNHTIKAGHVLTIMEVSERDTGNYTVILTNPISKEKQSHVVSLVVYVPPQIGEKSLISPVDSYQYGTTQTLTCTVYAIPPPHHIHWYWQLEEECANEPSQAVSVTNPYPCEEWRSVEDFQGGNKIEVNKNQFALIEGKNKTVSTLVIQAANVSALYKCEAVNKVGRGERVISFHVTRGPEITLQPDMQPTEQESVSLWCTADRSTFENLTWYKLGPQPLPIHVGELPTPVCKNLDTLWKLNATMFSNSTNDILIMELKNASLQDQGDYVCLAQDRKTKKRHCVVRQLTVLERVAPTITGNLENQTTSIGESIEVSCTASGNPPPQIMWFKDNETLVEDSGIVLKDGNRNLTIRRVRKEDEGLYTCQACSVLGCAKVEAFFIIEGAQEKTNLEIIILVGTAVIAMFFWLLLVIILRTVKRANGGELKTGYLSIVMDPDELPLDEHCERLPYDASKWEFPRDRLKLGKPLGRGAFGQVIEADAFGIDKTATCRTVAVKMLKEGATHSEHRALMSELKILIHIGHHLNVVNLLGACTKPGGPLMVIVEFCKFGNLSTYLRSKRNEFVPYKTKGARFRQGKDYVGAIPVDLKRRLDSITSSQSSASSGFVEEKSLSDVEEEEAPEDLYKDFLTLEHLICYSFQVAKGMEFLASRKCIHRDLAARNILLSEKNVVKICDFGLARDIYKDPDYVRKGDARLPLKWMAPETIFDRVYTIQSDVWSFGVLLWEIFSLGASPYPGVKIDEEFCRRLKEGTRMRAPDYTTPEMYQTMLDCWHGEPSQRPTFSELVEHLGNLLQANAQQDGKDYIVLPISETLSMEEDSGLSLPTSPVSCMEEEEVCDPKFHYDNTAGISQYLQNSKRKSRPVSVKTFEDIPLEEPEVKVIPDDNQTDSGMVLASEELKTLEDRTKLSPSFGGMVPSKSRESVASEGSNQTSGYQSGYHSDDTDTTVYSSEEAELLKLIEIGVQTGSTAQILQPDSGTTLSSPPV

For `CCn1ncc2c1CCC(Nc1nc3c(-c4ccc(F)cc4C)cccn3n1)C2` (stereo not drawn) [Example 42, (1-Ethyl-4,5,6,7-tetrahydro-1H-indazol-5-yl)-[8-(4-fluoro-2-methyl-phenyl)-[1,2,4]triazolo[1,5-a]pyridine-2-yl]-amine], the inhibition at 10 µM on KDR (VEGFR2) (setting [1]) was below 40%; on KDR (VEGFR2) (setting [2]), -3%; on LYN B (setting [3]), below 40%; at LYN B (setting [4]), 19%; on FGFR2 (setting [5]) it was below 40%; on FGFR2 (setting [6]), 26%. The inhibition at 10 µM at FLT4 (VEGFR3) (setting [7]) is below 40%; on FLT4 (VEGFR3) (setting [8]) it was 31%. In the assay with kinases, the “No. of kinases with <40% inhibition” value was 15/15.

As for `CCn1ncc2c1C(C)CC(Nc1nc3c(-c4cc(F)c(F)c(F)c4)cccn3n1)C2` (stereo not drawn) [Example 49, (1-Ethyl-7-methyl-4,5,6,7-tetrahydro-1H-indazol-5-yl)-[8-(3,4,5-trifluoro-phenyl)-[1,2,4]triazolo[1,5-a]pyridine-2-yl]-amine], the inhibition at 10 µM at KDR (VEGFR2) (setting [1]) was below 40%; on KDR (VEGFR2) (setting [2]), 8%; at LYN B (setting [3]), below 40%; on LYN B (setting [4]), 25%; on FGFR2 (setting [5]) it was below 40%; on FGFR2 (setting [6]), 31%. Also, the results for the inhibition at 10 µM at FLT4 (VEGFR3) (setting [7]) and at FLT4 (VEGFR3) (setting [8]) were below 40% and 33%, respectively. In addition, the “No. of kinases with <40% inhibition” value in the assay on kinases is reported as 14/15.

For the molecule `CC1(C)C(=O)Nc2ccc(Nc3nc4c(-c5cccc(F)c5)cccn4n3)cc21` [Cpd. 263 in WO09155551, reference compound], the inhibition at 10 µM was above 80% on KDR (VEGFR2) (setting [1]); 99% on KDR (VEGFR2) (read-out: % Inhibition mean); above 80% at LYN B (setting [3]); 98% on LYN B (read-out: % Inhibition mean); above 80% on FGFR2 (setting [5]); 102% on FGFR2 (read-out: % Inhibition mean). Further, the inhibition at 10 µM on FLT4 (VEGFR3) (setting [7]) was above 80%; at FLT4 (VEGFR3) (read-out: % Inhibition mean), 103%.

Turning to `CCCn1ncc2c1CCC(Nc1nc3c(-c4ccc(F)cc4C)cccn3n1)C2` (stereo not drawn) [Example 43, [8-(4-fluoro-2-methyl-phenyl)-[1,2,4]triazolo[1,5-a]pyridine-2-yl]-(1-propyl-4,5,6,7-tetrahydro-1H-indazol-5-yl)-amine], the inhibition at 10 µM at KDR (VEGFR2) (setting [1]) was below 40%; at KDR (VEGFR2) (setting [2]), -3%; on LYN B (setting [3]), below 40%; on LYN B (setting [4]), 22%; at FGFR2 (setting [5]), below 40%; on FGFR2 (setting [6]), 14%. The inhibition at 10 µM is below 40% at FLT4 (VEGFR3) (setting [7]) and 11% on FLT4 (VEGFR3) (setting [8]). Moreover, the “No. of kinases with <40% inhibition” value with kinases was 14/15.

`Cc1cc(F)ccc1-c1cccn2nc(Nc3ccc4c(cnn4C)c3)nc12` [Example 9, [8-(4-fluoro-2-methyl-phenyl)-[1,2,4]triazolo[1,5-a]pyridine-2-yl]-(1-methyl-1H-indazol-5-yl)-amine]: the inhibition at 10 µM was below 40% on KDR (VEGFR2) (setting [1]); 30% on KDR (VEGFR2) (setting [2]); below 40% on LYN B (setting [3]); 18% on LYN B (setting [4]); 40 to 80% at FGFR2 (setting [5]); 46% on FGFR2 (setting [6]). In addition, the figures for the inhibition at 10 µM on FLT4 (VEGFR3) (setting [7]) and at FLT4 (VEGFR3) (setting [8]) were above 80% and 86%, respectively. Further, the “No. of kinases with <40% inhibition” value with kinases is on record as 7/15.

`CC1(C)NC(=O)c2ccc(Nc3nc4c(-c5cccc(F)c5)cccn4n3)cc21` [Cpd. 302 in WO09155551, reference compound]: the inhibition at 10 µM at KDR (VEGFR2) (setting [1]) is above 80%; on KDR (VEGFR2) (read-out: % Inhibition mean), 101%; at LYN B (setting [3]), above 80%; at LYN B (read-out: % Inhibition mean) it was 97%; on FGFR2 (setting [5]), above 80%; on FGFR2 (read-out: % Inhibition mean), 98%. The inhibition at 10 µM is above 80% at FLT4 (VEGFR3) (setting [7]) and 96% at FLT4 (VEGFR3) (read-out: % Inhibition mean).

`CCCCn1ncc2c1CCC(Nc1nc3c(-c4ccc(F)cc4C)cccn3n1)C2` (stereo not drawn) [Example 46, [8-(4-fluoro-2-methyl-phenyl)-[1,2,4]triazolo[1,5-a]pyridine-2-yl]-(1-butyl-4,5,6,7-tetrahydro-1H-indazol-5-yl)-amine]: the inhibition at 10 µM was below 40% at KDR (VEGFR2) (setting [1]); 3% on KDR (VEGFR2) (setting [2]); below 40% on LYN B (setting [3]); 23% on LYN B (setting [4]); below 40% at FGFR2 (setting [5]); 26% at FGFR2 (setting [6]). Further, the inhibition at 10 µM on FLT4 (VEGFR3) (setting [7]) was below 40%; at FLT4 (VEGFR3) (setting [8]) it was 29%. Besides, in the assay on kinases, the “No. of kinases with <40% inhibition” value is on record as 14/15.

Regarding `Cc1cc(F)ccc1-c1cccn2nc(NC3CCc4c(cnn4C(C)C)C3)nc12` (stereo not drawn) [Example 44, [8-(4-fluoro-2-methyl-phenyl)-[1,2,4]triazolo[1,5-a]pyridine-2-yl]-(1-isopropyl-4,5,6,7-tetrahydro-1H-indazol-5-yl)-amine], the inhibition at 10 µM was below 40% on KDR (VEGFR2) (setting [1]); 3% at KDR (VEGFR2) (setting [2]); below 40% on LYN B (setting [3]); 21% at LYN B (setting [4]); below 40% at FGFR2 (setting [5]); 22% at FGFR2 (setting [6]). The inhibition at 10 µM on FLT4 (VEGFR3) (setting [7]) is 40 to 80%; on FLT4 (VEGFR3) (setting [8]), 43%. The “No. of kinases with <40% inhibition” value in the assay with kinases is reported as 13/15.

For `Fc1cccc(-c2cccn3nc(Nc4ccc5[nH]cnc5c4)nc23)c1` [Cpd. 293 in WO09155551, reference compound], the inhibition at 10 µM was above 80% on KDR (VEGFR2) (setting [1]); 98% at KDR (VEGFR2) (read-out: % Inhibition mean); above 80% at LYN B (setting [3]); 89% on LYN B (read-out: % Inhibition mean); above 80% on FGFR2 (setting [5]); 90% at FGFR2 (read-out: % Inhibition mean). Also, the results for the inhibition at 10 µM on FLT4 (VEGFR3) (setting [7]) and at FLT4 (VEGFR3) (read-out: % Inhibition mean) were above 80% and 94%, respectively.
